Active and inactive are the calls of the source.
Experiments:
[1] = target: T1, Oxysterols receptor LXR-beta (Homo sapiens, UniProt P55055); assay type: functional, cell-based;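 also: agonist activity at LXR measured by a cell-based luminescence readout across a dose range, run as a counterscreen for daf-12 agonists; HEK293 cells with Gal4-LXR fusion and GAL4-driven luciferase reporter; potency for activation of Gal4-LXR reporter so compounds are agonists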
T1 sequence (P55055 whole entry): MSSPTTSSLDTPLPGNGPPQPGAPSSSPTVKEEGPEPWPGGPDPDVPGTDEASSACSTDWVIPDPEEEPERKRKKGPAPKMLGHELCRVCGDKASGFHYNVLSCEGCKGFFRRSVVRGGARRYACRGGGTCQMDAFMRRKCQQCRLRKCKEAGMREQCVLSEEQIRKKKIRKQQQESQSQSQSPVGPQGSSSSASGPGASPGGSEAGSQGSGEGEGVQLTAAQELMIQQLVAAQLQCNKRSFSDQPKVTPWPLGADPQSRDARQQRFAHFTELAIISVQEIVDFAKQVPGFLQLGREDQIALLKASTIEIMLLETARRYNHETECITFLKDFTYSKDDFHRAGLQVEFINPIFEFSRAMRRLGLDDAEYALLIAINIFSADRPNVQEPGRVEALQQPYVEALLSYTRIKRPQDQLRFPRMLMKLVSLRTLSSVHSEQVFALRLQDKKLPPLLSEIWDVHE

[2] = ADAM10 protease inhibitors, dose response, selectivity assay for ADAM17 exosite inhibitor project, biochemical, FRET peptide substrate, recombinant human ADAM10 (AID 743259);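 also: ADAM10 enzyme cleaving a FRET peptide substrate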
[3] = target: Disintegrin and metalloproteinase domain-containing protein 17 (Homo sapiens, UniProt P78536); experiment: exosite inhibitors of ADAM17, dose response, biochemical (AID 743260)
Chain of Disintegrin and metalloproteinase domain-containing protein 17 (P78536 whole entry, the tested form may be a part): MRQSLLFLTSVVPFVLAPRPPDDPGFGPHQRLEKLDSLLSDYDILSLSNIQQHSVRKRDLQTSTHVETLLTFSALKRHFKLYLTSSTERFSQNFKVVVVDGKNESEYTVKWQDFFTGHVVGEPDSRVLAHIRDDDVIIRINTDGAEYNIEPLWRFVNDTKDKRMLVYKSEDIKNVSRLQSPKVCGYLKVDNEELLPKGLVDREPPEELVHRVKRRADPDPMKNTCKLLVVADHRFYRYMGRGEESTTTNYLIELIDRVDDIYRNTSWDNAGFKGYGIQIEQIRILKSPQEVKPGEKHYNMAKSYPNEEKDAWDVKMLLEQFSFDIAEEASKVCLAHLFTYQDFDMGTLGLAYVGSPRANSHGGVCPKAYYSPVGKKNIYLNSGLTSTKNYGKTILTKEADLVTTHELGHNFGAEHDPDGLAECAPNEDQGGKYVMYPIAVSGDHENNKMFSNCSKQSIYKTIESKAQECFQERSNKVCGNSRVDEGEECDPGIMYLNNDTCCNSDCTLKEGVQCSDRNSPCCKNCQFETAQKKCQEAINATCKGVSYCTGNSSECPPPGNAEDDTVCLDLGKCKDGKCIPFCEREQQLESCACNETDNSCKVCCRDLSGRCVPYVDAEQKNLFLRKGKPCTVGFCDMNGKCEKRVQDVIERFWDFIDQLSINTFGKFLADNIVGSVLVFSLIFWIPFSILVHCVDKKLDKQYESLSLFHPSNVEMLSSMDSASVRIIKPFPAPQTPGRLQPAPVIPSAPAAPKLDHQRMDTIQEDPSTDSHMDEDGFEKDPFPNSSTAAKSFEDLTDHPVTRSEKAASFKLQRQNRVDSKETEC

[4] = inhibitors of SNCA 5'UTR-driven reporter translation, confirmation, H4 neuroglioma cells, luminescence (AID 1988); assay type: functional, cell-based
[5] = non-specific cell cytotoxicity, dose response, cytotoxicity control for PAX8 inhibitor project, plate reader, dry powder samples (AID 743021); assay type: functional, cell-based
[6] = Luminescence Cell-Based Dose Response HTS to Identify Inhibitors of 5'UTR Stem-Loop Driven Prion Protein mRNA Translation in H4 Neuroglioblastoma Cells. [Related pubchem assays: 1827 (Project Summary), 1813 (Primary HTS)]; assay type: functional
[7] = target: T2, Ubiquitin-conjugating enzyme E2 N (Homo sapiens, UniProt P61088); assay type: functional;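 also: Dose-response confirmation in a TR-FRET assay detecting UBC13-driven polyubiquitin chain formation, inhibition measured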
T2 sequence (P61088 whole entry): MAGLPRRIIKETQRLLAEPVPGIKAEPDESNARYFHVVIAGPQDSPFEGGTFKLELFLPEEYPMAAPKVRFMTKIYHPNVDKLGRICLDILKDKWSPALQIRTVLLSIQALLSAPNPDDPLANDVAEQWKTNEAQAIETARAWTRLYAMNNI

Paired box protein Pax-8 = Paired box protein Pax-8 (Homo sapiens, UniProt Q06710); experiment: inhibitors of PAX8-driven TPO luciferase reporter, dose response, RMG-I cells, cherry-pick (AID 687027); assay type: functional, cell-based;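 also: luciferase reporter driven by Pax8 target thyroperoxidase promoter measured by SteadyGlo luminescence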
Chain of Paired box protein Pax-8 (Q06710 whole entry): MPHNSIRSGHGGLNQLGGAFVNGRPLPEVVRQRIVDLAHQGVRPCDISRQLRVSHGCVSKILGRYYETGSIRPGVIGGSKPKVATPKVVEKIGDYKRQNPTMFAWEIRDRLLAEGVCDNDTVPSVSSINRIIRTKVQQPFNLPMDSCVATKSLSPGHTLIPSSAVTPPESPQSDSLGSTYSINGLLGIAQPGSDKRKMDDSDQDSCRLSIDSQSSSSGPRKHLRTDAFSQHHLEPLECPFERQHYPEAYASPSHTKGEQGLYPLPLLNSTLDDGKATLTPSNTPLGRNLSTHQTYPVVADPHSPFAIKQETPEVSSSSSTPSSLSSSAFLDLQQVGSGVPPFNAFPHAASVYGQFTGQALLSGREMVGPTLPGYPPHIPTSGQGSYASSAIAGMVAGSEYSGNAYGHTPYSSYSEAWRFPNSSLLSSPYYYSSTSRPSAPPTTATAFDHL

[8] = inhibitors of firefly luciferase expression or activity, dose response, H4 neuroglioma cells, luminescence (AID 1990); assay type: functional, cell-based
[9] = HeLa cell cytotoxicity, dose response, cytotoxicity control for MgcRacGAP inhibitor project (AID 624300); assay type: functional
[10] = target: T3, Rac GTPase-activating protein 1 (Homo sapiens, UniProt Q9H0H5); experiment: MgcRacGAP GTPase-activating activity inhibitors, confirmation, biochemical, ADP Hunter fluorescence, primary and confirmatory (AID 624330); assay type: functional
T3 sequence (Q9H0H5 whole entry): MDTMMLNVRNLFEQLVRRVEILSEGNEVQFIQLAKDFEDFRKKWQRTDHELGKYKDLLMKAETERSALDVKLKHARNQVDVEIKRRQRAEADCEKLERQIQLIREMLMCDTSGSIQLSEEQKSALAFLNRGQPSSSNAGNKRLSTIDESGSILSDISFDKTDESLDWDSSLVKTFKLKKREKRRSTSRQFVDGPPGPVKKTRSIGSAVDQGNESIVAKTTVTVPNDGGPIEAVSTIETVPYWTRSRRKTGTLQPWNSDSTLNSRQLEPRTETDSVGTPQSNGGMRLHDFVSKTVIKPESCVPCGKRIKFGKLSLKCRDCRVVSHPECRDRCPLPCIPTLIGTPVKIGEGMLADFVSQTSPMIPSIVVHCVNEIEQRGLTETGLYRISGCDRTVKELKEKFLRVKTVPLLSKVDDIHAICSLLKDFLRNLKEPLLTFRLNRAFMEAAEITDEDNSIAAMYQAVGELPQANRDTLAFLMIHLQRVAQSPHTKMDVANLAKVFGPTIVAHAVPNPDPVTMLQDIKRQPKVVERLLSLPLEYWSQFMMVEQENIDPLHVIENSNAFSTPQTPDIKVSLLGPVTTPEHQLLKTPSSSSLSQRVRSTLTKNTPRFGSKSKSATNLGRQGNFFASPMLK

[11] = HEK293T cytotoxicity, dose response, cytotoxicity control for miR-122 modulator project, cell-based, activator set, cherry-pick (AID 720690); assay type: functional;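 also: HEK293T human cells scored for general mammalian cytotoxicity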
[12] = miR-122 activators in hepatoma reporter cells, dose response, cell-based, Huh7 psiCHECK-miR122, Renilla luciferase, cherry-picked (AID 651956); assay type: functional;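 also: huh7 hepatoma cells stably carrying a psiCHECK-2 miR-122 sensor plasmid; renilla luciferase signal reporting endogenous miR-122 activity after 48 h compound exposure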
[13] = A549 cell cytotoxicity, dose response, cytotoxicity control, cherry-picks, 26 µM top dose (AID 1053119); assay type: functional, cell-based
[14] = HEK293 cell cytotoxicity, dose response, cytotoxicity control, cherry-picks, set 5 (AID 1053117); assay type: functional, cell-based
[15] = inhibitors of non-replicating M. tuberculosis, dose response, luciferase, dry powder (AID 651620); assay type: functional; settings: Mycobacterium tuberculosis
[16] = inhibitors of non-replicating M. tuberculosis, dose response, luciferase, dry powder (AID 651619); assay type: functional; settings: Mycobacterium tuberculosis
[17] = cytotoxicity in HeLa cells, dose response, cytotoxicity control, cell-based, plate reader, dry powder (AID 651946); assay type: functional
[18] = target: Endoplasmic reticulum aminopeptidase 1 (Homo sapiens, UniProt Q9NZ08); experiment: ERAP1 aminopeptidase inhibitors, dose response, biochemical, cherry-pick, set 2, plate reader (AID 743314)
Chain of Endoplasmic reticulum aminopeptidase 1 (Q9NZ08 whole entry): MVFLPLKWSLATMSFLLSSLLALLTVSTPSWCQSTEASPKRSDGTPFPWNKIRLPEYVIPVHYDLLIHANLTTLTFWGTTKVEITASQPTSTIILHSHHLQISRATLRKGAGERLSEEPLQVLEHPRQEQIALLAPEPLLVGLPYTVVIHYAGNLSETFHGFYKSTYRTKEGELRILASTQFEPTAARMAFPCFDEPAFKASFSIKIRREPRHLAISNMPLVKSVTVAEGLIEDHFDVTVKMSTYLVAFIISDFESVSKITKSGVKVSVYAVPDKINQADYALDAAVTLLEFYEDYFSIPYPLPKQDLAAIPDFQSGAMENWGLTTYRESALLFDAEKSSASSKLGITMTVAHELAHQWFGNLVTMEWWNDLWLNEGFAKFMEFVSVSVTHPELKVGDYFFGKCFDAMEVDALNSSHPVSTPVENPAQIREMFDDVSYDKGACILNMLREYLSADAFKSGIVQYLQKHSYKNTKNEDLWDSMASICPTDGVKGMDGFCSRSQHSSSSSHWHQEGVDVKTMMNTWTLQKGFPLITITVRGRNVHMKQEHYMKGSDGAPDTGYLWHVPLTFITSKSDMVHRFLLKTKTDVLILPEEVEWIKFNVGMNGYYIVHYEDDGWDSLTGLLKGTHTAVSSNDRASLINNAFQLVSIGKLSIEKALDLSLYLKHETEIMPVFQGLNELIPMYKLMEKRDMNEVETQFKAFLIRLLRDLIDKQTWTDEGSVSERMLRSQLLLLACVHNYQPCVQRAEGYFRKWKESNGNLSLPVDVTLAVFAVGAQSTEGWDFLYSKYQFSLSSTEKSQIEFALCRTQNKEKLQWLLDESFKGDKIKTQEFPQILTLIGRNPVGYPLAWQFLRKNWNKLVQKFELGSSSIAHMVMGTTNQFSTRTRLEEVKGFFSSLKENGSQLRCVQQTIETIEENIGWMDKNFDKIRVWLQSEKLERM

[19] = target: Tyrosyl-DNA phosphodiesterase 2 (Homo sapiens, UniProt O95551); experiment: human TDP2 enzyme inhibitors, dose response, biochemical, epi absorbance, IC50 (AID 743297)
Chain of Tyrosyl-DNA phosphodiesterase 2 (O95551 whole entry): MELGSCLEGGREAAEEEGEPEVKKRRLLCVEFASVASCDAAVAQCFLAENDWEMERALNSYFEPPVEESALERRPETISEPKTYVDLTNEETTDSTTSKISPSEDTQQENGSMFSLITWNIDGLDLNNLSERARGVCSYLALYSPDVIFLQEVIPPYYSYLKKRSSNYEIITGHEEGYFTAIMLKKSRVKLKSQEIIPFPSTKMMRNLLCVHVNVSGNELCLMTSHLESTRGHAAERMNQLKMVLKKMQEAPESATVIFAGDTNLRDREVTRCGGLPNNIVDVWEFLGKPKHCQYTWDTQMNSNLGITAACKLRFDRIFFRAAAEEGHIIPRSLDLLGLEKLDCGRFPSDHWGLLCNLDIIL

[20] = target: T4, Replicative DNA helicase DnaB (Mycobacterium tuberculosis, UniProt P9WMR3); experiment: DnaB intein splicing inhibitors, dose response, biochemical, cell-free fluorescence (AID 449749); assay type: functional
T4 sequence (P9WMR3 whole entry): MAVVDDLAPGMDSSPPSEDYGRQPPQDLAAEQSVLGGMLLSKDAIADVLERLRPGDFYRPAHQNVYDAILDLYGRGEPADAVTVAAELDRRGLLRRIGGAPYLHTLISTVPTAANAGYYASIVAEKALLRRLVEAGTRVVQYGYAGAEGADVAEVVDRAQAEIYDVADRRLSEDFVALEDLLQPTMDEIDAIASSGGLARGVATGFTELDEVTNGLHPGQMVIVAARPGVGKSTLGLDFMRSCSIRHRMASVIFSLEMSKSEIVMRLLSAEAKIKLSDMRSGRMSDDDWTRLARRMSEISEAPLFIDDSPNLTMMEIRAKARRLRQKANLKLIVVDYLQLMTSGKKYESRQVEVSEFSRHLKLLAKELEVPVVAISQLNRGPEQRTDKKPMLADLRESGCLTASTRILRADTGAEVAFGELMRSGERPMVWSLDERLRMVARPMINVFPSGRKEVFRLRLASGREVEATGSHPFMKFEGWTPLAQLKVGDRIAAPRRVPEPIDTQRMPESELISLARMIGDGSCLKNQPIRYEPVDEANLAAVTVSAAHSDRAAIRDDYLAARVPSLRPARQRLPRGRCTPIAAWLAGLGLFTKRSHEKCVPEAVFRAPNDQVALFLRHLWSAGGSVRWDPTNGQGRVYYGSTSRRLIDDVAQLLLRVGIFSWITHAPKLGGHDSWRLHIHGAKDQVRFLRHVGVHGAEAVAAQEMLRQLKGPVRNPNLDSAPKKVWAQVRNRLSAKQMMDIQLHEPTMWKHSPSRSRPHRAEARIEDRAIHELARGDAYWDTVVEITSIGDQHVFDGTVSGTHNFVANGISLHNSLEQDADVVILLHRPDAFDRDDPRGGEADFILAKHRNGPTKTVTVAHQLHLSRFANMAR

P388/ADR = experiment: cells; assay type: functional; settings: Mus musculus
[21] = target: Dual specificity tyrosine-phosphorylation-regulated kinase 1A (Rattus norvegicus, UniProt Q63470); assay type: biochemical, Homo sapiens
Protein RecA = target: T5, Protein RecA (Mycobacterium tuberculosis, UniProt P9WHJ3); experiment: Fluorescence Cell-Free Homogeneous Dose Retest to Identify Inhibitors of RecA-Intein Splicing Activity. [Related pubchem assays (depositor defined):AID2097, AID2223, AID489010, AID492950]; assay type: functional
T5 sequence (P9WHJ3 whole entry): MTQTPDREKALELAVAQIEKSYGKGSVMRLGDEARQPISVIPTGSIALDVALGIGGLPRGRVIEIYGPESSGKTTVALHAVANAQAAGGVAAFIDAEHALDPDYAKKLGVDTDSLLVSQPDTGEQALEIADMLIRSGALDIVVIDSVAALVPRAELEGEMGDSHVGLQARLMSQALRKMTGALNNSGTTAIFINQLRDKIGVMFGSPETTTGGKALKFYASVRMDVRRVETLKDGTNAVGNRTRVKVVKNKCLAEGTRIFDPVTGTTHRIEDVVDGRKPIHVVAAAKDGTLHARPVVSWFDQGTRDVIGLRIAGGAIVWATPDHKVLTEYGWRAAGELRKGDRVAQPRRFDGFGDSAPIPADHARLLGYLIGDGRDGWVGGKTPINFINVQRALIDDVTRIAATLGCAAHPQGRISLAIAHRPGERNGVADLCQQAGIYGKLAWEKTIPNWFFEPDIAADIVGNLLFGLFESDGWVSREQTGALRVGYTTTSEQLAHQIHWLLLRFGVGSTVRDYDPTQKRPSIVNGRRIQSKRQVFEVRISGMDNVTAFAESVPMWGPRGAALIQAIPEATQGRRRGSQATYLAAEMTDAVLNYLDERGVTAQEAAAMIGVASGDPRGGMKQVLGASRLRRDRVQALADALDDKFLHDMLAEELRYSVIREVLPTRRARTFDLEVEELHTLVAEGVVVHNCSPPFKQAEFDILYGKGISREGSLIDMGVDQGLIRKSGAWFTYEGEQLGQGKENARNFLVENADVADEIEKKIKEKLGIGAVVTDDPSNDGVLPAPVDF

[22] = target: T6, DNA repair protein RAD52 homolog (Homo sapiens, UniProt P43351); assay type: functional, biochemical
T6 sequence (P43351 whole entry): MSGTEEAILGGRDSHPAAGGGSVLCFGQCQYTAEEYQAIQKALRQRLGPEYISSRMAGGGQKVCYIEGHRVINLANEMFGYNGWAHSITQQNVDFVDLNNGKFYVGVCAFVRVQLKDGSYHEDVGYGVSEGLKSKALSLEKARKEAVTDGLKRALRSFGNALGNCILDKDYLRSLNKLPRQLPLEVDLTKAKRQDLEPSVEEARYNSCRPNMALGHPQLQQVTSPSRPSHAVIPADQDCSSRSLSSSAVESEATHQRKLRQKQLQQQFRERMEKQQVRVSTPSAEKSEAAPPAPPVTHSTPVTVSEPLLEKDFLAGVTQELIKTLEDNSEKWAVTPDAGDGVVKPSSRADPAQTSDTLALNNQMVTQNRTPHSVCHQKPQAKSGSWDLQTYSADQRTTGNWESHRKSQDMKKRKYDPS

SN12K1 = experiment: cells; assay type: functional; settings: Homo sapiens
P388 = experiment: cells; assay type: functional; settings: Mus musculus
[23] = AlphaScreen signal interference compounds, dose response, artefact control for ARNT-TACC3 interaction inhibitor project, biochemical, luminescence, cherry-pick (AID 651705); assay type: functional;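 also: AlphaScreen bead proximity signal that flags compounds interfering with the detection technology; potency reflects signal decrease which marks the compound as an assay artifact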
Caspase-6 = target: T7, Caspase-6 (Homo sapiens, UniProt P55212); experiment: human caspase-6 inhibitors, dose response, biochemical, VEID-R110 fluorescence, cherry-pick (AID 720632)
T7 sequence (P55212 whole entry): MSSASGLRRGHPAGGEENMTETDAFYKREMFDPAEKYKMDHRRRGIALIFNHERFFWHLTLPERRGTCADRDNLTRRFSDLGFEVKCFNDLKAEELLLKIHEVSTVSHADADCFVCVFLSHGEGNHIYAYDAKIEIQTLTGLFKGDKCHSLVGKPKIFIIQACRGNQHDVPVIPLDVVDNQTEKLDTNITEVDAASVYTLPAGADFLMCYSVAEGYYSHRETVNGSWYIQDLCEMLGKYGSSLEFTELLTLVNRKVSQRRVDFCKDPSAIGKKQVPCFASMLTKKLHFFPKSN

CCCCCc1nnc(NC(=O)C2=COCCO2)s1
EC50 [1]: > 67.6 µM (inactive)

O=C(c1cc2c(s1)CCCCCC2)N1CCC2(CC1)OCCO2
IC50 [2]: > 69.5 µM (inactive)
IC50 [3]: > 69.5 µM (inactive)

COc1ccc2nc(C)cc(N/N=C/c3cccc(OC)c3O)c2c1
EC50 [4]: 7.76 µM (active)
AC50 [5]: 32.4 µM (active)
EC50 [6]: > 120 µM (not active)
IC50 [7]: > 20 µM (inactive)
AC50 (Paired box protein Pax-8): 12 µM (active)
EC50 [8]: > 120 µM (not active)
CC50 [9]: 23.4 µM (active)
IC50 [10]: 51.8 µM (active)

CO[C@H]1CN(C)C(=O)c2cc(NC(=O)Nc3ccc(Cl)c(Cl)c3)ccc2OC[C@@H](C)NC[C@@H]1C
AC50 [11]: 48 µM (active)
AC50 [12]: 21.6 µM (active)
AC50 [13]: > 52 µM (inactive)
AC50 [14]: > 52 µM (inactive)

c1ccc(COc2nnc(-c3ccccc3)o2)cc1
IC90 [15]: 8 µM (active)
IC90 [16]: 8 µM (active)
AC50 [17]: > 52 µM (inactive)

COc1ccc2c3c([nH]c2c1)[C@H](CO)N(Cc1ccccc1OC)CC31CN(C)C1
AC50 [18]: 14.9 µM (active)

COc1cc2c(cc1OC)-c1c3c(cc4c1[C@@H](C2)N(C)CC4)OCO3
IC50 [19]: 7.83 µM (active)
AC50 [20]: 26.7 µM (active)
GI50 (P388/ADR): 7.08 µM (inactive)
AC50 [21]: 2.09 µM (active)
EC50 (Protein RecA): 0.952 µM (active)
AC50 [22]: 1.18 µM (active)
GI50 (SN12K1): 6.1 µM (inactive)
GI50 (P388): 8.53 µM (inactive)
AC50 [23]: 116 µM (active)
AC50 (Caspase-6): 5.63 µM (active)

— ChEMBL document CHEMBL1201862, “PubChem BioAssay data set” (2004)
